Data on two compounds can be found in patent US20130202733A1, “ISOMALTULOSE FOR USE IN ENHANCING MENTAL PERFORMANCE” (SUEDZUCKER AKTIENGESELLSCHAFT MANNHEIM/OCHSENFURT, priority 2010, published 2013).

The conditions of assay [1]: after ingestion of 50 g; cited from earlier work.
The subject of the next assay is healthy adults. The note with it: milk-based drink; cited from earlier work.
The subject of a further assay is subjects. The note with it: at 150 minutes following ingestion; cited from earlier work.
For assay [2] the following is noted: glucose standard = 100; cited from earlier work.
Assay [3] concerns healthy school children. As to the kind of experiment: Attention test (paradigm of Shakow, signal detection, error rate) after isomaltulose or glucose sweetened meal. Type of assay: in vivo, human. How it is done:
(§1) Seventy-five healthy school children consumed in crossover design two meals designed to differ in their glycemic load (GL; Amount of carbohydrate×Glycemic Index, GI, of food items; GI of isomaltulose=32, GI of glucose=100) while being similar in macro-nutrient content. The cognitive test block takes 45 minutes and was once assessed in the early postprandial phase and once in the late post-prandial phase (>150 minutes) after meal ingestion. Every child participated in four blocks of testing (FIG. 2). • Early test block after meal A • Late test block after meal A • Early test block after meal B • Late test block after meal B
(§2) On each cognitive test block parallel versions of the cognitive tests were administered.
(§3) Both meals offered a similar intake of energy (1385 KJ) and macro-nutrients (84.4% carbohydrates, 10.6% protein and 5.0% fat) while differing in glycemic load (GL; Amount of carbohydrate×Glycemic Index of food items), that is whether glucose was released slowly or i quickly into the blood stream. The meals were composed as followed (% of total energy): • High GL meal: Cornflakes+milk (35.3%), yoghurt+fruit preparation (14.2%), glucose (50.5%). • Low GL meal: Cornflakes+milk (35.3%), yoghurt+fruit preparation (14.2%), isomaltulose (50.5%).
The paradigm of Shakow was used to assess attention with error rate as outcome (Shakow, Arch general Psychiat, 1962, 6, 1-17). […]

Assay [4] deals with healthy school children. As to the kind of experiment: Episodic memory test (Recall of Objects, British Ability Scales) after isomaltulose or glucose sweetened meal. The format is in vivo, human. How it is done:
as §1, §2, §3
The approach was based on the Recall of Objects test of the British Ability Scales (Elliott, British Ability Scales, 1996, National foundation of Educational Research) and children had to recall up to 60 objects.

“Also recorded” adds a separate entry of the source.

As to `OC[C@H]1O[C@H](OC[C@H]2OC(O)(CO)[C@@H](O)[C@@H]2O)[C@H](O)[C@@H](O)[C@@H]1O` (some centres unmarked) [isomaltulose], in assay [1], the “blood glucose or glycemic response curve versus sucrose” value was “much lower” and the “time after ingestion at which blood glucose approximates the initial levels” value is given as “about 2.5 hours”. The “effect on cognitive performance” value in the assay on healthy adults is given as “does not affect cognitive performance”. Besides, the “cognitive performance tests versus sucrose-containing drinks” value in the assay with subjects is reported as “performed significantly better”. Also, in assay [2], the “glycemic index (GI)” value is reported as 32. The “attention error rate, isomaltulose meal versus glucose meal” value in the assay on healthy school children [3] (early postprandial phase) is “nearly the same attention error rate; also recorded: nearly the same error rates”. In the assay with healthy school children [3] (late postprandial phase, >150 minutes after meal ingestion), the “attention performance (error rate), isomaltulose meal versus glucose meal” value is “performed better by tendency; also recorded: trend for better attention performance”. The “episodic memory, isomaltulose meal versus glucose meal” value in the assay with healthy school children [4] (early postprandial phase (early cognitive test block)) is listed as “did not differ”. In the assay on healthy school children [4] (late postprandial phase, >150 minutes after meal consumption), the “episodic memory, isomaltulose meal versus glucose meal” value is recorded as “significantly better episodic memories”. For the same compound, the “episodic memory, late postprandial phase compared to early postprandial phase” value in the assay on healthy school children [4] (within the same meal) was “not significantly different”.
In the case of `OC[C@H]1O[C@@](CO)(O[C@H]2O[C@H](CO)[C@@H](O)[C@H](O)[C@H]2O)[C@@H](O)[C@@H]1O` [sucrose, reference compound], in assay [2], the “glycemic index (GI)” value is listed as 65.
